Source: US12161656B2 (MELINTA SUBSIDIARY CORP., priority 2010, dated 2024)
Like-named read-outs stand apart in the source and are kept apart here.

Legend:
[1] = system: rabbit red blood cells (RBCs)
[2] = Excerpt: The solubility of four non-dimethlyamino tetracyclines, with and without Mg^2+, was examined.
[3] = system: Human umbilical vein endothelial cells (HUVEC); test: Uptake of minocycline in HUVEC at various Mg/minocycline ratios (LCMS), Example 12; format: cell-based; conditions: 1 mg/mL in saline, 30 min, Mg/minocycline ratios 0-25, FIGS. 6 and 7
Description: Cells and reagents: Human umbilical vein endothelial cells (HUVEC) were purchased from Lonza and maintained according to manufacturer's recommendations in EGM-2 media. A 10 mg/mL solution of minocycline was prepared in 13.6 mg/mL Na-acetate without addition of Mg. This stock solution was further diluted in saline to 1 mg/mL with addition of Mg in the form of 1 M MgSO4 to generate the following molar ratios of Mg to minocycline: 0, 1, 2.5, 5, 10, 25.
Uptake experimental conditions: HUVECs were seeded at 4.5×10^5 cells/well density in 6-well plates in EGM-2 media. Two days after seeding, cells were washed once with 2 mL of saline, and then 2 mL of 1 mg/mL drug solution in saline prepared as described above was placed in each well in triplicate. Plates were incubated in a CO2 incubator at 37° C. for 30 min. Drug solutions were aspirated and cells were washed once with 2 mL of saline. 0.5 mL of saline was placed in each well and the cell monolayer was scraped using a plastic cell scraper. Cell suspensions were transferred to 1.5 mL plastic tubes and sonicated for 30 sec at maximal power. Cell lysates were spun down for 10 min on a table top microcentrifuge at maximum speed and supernatants were collected. […]

[4] = system: rabbit red blood cells (RBCs); test: In vitro hemolysis of rabbit red blood cells (in vitro model of venous phlebitis), Example 8; conditions: Table 29, rabbit RBCs, 2.5 mg/ml minocycline solution, different molar ratios cation:minocycline

C[C@@H]1[C@H](O)[C@@H](C)/C=C/C=C/C=C/C=C/C=C/C=C/C=C/[C@H](O[C@@H]2O[C@H](C)[C@@H](O)[C@H](N)[C@@H]2O)C[C@@H]2O[C@](O)(C[C@@H](O)C[C@@H](O)[C@H](O)CC[C@@H](O)C[C@@H](O)CC(=O)O[C@H]1C)C[C@H](O)[C@H]2C(=O)O [Amphoterin B, Amphotericin B]
Hemolysis of RBCs in solution relative to water [1]: 101.31% | Hemolysis of RBCs in solution relative to water ([1]; pH 5.85): 101.31%

C[C@H]1c2cccc(O)c2C(=O)C2=C(O)[C@]3(O)C(=O)C(C(N)=O)=C(O)[C@@H](N(C)C)[C@@H]3[C@@H](O)[C@@H]21 [Doxycycline]
solubility (text summary of Table 36) [2]: is soluble in the absence of divalent cations, such as Mg^2+, but is insoluble in the presence of divalent cations at low pH

CN(C)c1ccc(O)c2c1C[C@H]1C[C@H]3[C@H](N(C)C)C(O)=C(C(N)=O)C(=O)[C@@]3(O)C(O)=C1C2=O [Minocycline]
intracellular uptake of minocycline [3]: decrease in intracellular uptake of minocycline is observed as the concentration of a divalent cation, such as Mg^2+ increases

CN(C)[C@@H]1C(O)=C(C(N)=O)C(=O)[C@@]2(O)C(O)=C3C(=O)c4c(O)cccc4[C@@](C)(O)[C@H]3[C@H](O)[C@@H]12 [oxytetracycline]
solubility (text summary of Table 36) [2]: remains insoluble in the presence of divalent cations, such as Mg^2+, at low pH

Triton-x
Hemolysis of RBCs in solution relative to water [4]: 97.82%
